Like-named read-outs stand apart in the source and are kept apart here.
How the values were obtained:
[1] = tested on: Calu-6 human lung cancer xenograft; format: in vivo; settings: day 32 after inoculation
Description: The Calu-6 human lung carcinoma cell line was purchased from American Type Culture Collection (MD, U.S.A.). The cells were cultured in Eagle's MEM (Sigma-Aldrich corporation, MO, U.S.A.) supplemented with 0.1 milli mol/L Non-essential amino acids (Invitrogen corporation, CA, U.S.A.), 1 milli mol/L sodium pyruvate (Invitrogen corporation, CA, U.S.A.), and 10% (v/v) fetal bovine serum (Roche Diagnostics KK, Tokyo, Japan).
60 of 5-week-old male athymic nude mice (BALB/c nu/nu) were purchased from Charles River Japan, Inc. (Yokohama, Japan). All mice were kept for 8 days in the animal facility of Kamakura Research Laboratories of Chugai Pharmaceutical Co., Ltd. before subjection to the experiment.
(§1) The title compound was synthesized at Kamakura Research Laboratories of Chugai Pharmaceutical Co., Ltd. Irinotecan (Topotecin™, lot. No. EQAZF13) was obtained from Daiichi Pharmaceutical Co., Ltd. (Tokyo, Japan). The title compound was dissolved in dimethyl sulfoxide (DMSO) and diluted into 2.5 % DMSO solution with saline (For Injection; Ohtsuka Pharmaceutical Industry Co., Ltd., Tokushima, Japan) at the date of administration. Irinotecan was diluted with saline at the date of administration.
The in vivo evaluation procedure for anticancer drugs was based on the methods described by Plowman, et al. (1997) for xenograft models. See, “Anticancer Drug Development Guide: Preclinical Screening, Clinical Trials, and Approval, Teicher B (ed) pp. 101-125, specifically Chap. 6, “Human Tumor Xenograft Models in NCI Drug Development”, hereby incorporated by reference. A single cell suspension of Calu-6 (5.7×10^6 cells per mouse) was inoculated subcutaneously into the right flank of each mouse. The tumor volume was estimated by using the equation ab^2/2, where a and b represent tumor length and width, respectively. Mice bearing tumors of between 181 and 326 mm^3 were selected on day 11 after tumor inoculation and were randomly divided into 10 groups, consisting of 5 mice each. […] Drug administration was initiated after mice were randomized and divided into groups. The tide compound (0.375 mg/kg; 0.75 mg/kg; 1.5 mg/kg or 3 mg/kg), irinotecan (80 mg/kg) and each vehicles were administered intravenously. Tumor volume and body weight of each mouse were measured twice a week. […] Tumor growth inhibition was calculated by using the equation (1-ΔT/ΔC)×100, where ΔT represents the tumor volume difference from the initial treatment date of treated group and ΔC represents the tumor volume difference from the initial treatment date of vehicle group.

[2] = tested on: NCI-H460 human large cell lung carcinoma xenograft; assay: Antitumor activity in NCI-H460 subcutaneous xenograft in athymic nude mice, combination with cisplatin (Example 4); format: in vivo; settings: day 12
Description: The NCI-H460 human large cell lung carcinoma cell line was purchased from American Type Culture Collection (MD, U.S.A.). The cells were cultured in RPMI-1640 medium (cat. # R8758, lot 12K2310, exp 01/03; lot 82K2497, exp 08/03; Sigma-Aldrich corporation, MO, U.S.A.) supplemented with 10% (v/v) fetal bovine serum (cat. # 047115, lot # 31300124; Roche Diagnostics KK, Tokyo, Japan).
Sixty of 5-week-old male athymic nude mice (BALB/c nu/nu) were purchased from Charles River Japan, Inc. (Yokohama, Japan). All mice were kept for 8 days in the animal facility of Kamakura Research Laboratories of Chugai Pharmaceutical Co., Ltd. before subjection to the experiment.
as §1, with “CDDP (Randa™, lot # 924150)” for “Irinotecan (Topotecin™, lot. No. EQAZF13)”, “Nippon Kayaku” for “Daiichi Pharmaceutical”, “(for” for “(For”, “CDDP” for “Irinotecan”
The in vivo evaluation procedure for anticancer drugs was based on the methods described by Plowman, et al. (1997) for xenograft models. See, “Anticancer Drug Development Guide: Preclinical Screening, Clinical Trials, and Approval, Teicher B (ed) pp. 101-125, specifically Chap. 6, “Human Tumor Xenograft Models in NCI Drug Development”, hereby incorporated by reference. A single cell suspension of NCI-H460 (5.6×10^6 cells per mouse) was inoculated subcutaneously into the right flank of each mouse. The tumor volume was estimated by using the equation ab^2/2, where a and b represent tumor length and width, respectively. Mice bearing tumors of between 150 and 245 mm^3 were selected on day 7 after tumor inoculation and were randomly divided into 8 groups, consisting of 5 mice each. Mean tumor volume and body weight of the selected mice were 187 mm3 and 24.3 g, respectively. Drug administration was initiated after mice were divided into groups. The title compound (2 mg/kg or 3 mg/kg), CDDP (5 mg/kg or 6.7 mg/kg) and each vehicle were administered intravenously. Tumor volume and body weight of each mouse were measured twice a week. […] Tumor growth inhibition was calculated using the equation (1-ΔT/ΔC)×100, where ΔT represents the difference in tumor volume from the initial treatment date of the treated group and ΔC represents the difference in tumor volume from the initial treatment date of the vehicle group.

`CC[C@H](C)[C@@H]([C@@H](CC(=O)N1CCC[C@H]1[C@H](SC)[C@@H](C)C(=O)N(C)CCc1cccc(O)c1)OC)N(C)C(=O)[C@@H](NC(=O)[C@H](C(C)C)N(C)C)C(C)C` [compound of formula (I-A), N-[1-({1-sec-Butyl-4-[2-(2-{[2-(3-hydroxy-phenyl)-ethyl]-methyl-carbamoyl}-1-methylsulfanyl-propyl)-pyrrolidin-1-yl]-2-methoxy-4-oxo-butyl}-methyl-carbamoyl)-2-methyl-propyl]-2-dimethylamino-3-methyl-butyramide] showed a tumor growth inhibition ([1]; 0.375 mg/kg i.v. weekly x3) of 11%, a tumor growth inhibition ([1]; 0.75 mg/kg i.v. weekly x3) of 21% and a tumor growth inhibition ([1]; 1.5 mg/kg i.v. weekly x3) of 41%. For the same compound, the tumor growth inhibition ([1]; 3 mg/kg i.v. weekly x3) was 117%, the “reduction of tumor growth” value ([2]; 2 mg/kg (1/3 MTD) i.v. weekly x3) was 45% and the “reduction of tumor growth” value ([2]; 3 mg/kg (1/2 MTD) i.v. weekly x3) was 93%.
